Measurements taken from US20200069664A1, “METHODS FOR TREATING INFECTION” (Salix Pharmaceuticals, Ltd, priority 2010, published 2020).
“Also recorded” adds a separate entry of the source. Like-named read-outs stand apart in the source and are kept apart here.

Legend:
[1] = system: B. anthracis Sterne strain 7702; assay type: cell-based; settings: pretreated A549 cells, vs other treatment groups
S. sonnei = S. sonnei adherence and internalization in antibiotic-pretreated HeLa cells; assay type: cell-based; settings: vs other treatment groups
EAEC [2] = test: Effect of dialyzed supernatants of treated HEp-2 cells on EAEC adherence; assay type: cell-based, E. coli; settings: HEp-2 treated 24 h with 64 mg/ml (so in the source); chambered slides with or without HEp-2 cells, 3 h
Procedure: Supernatant dialysis. HEp-2 cells were cultured in T-175 flasks as described above. […] After 24 h, the medium was collected, loaded into regenerated cellulose dialysis tubing (cutoff, 6 to 8 kDa; Spectra/Por, Rancho Domiguez, Calif.), and dialyzed against 4 liters of PBS changed four times. Each dialysis step lasted at least 6 h and was carried out at 4° C. Dialyzed supernatants were either used immediately in adherence assays or stored at −20° C. until use.
The effect of supernatants on EAEC adherence was determined by mixing EAEC with the dialyzed media from the different antibiotic (or control) treatment groups and adding the bacteria to HEp-2 cells cultured in chambered slides or to chambered slides with no HEp-2 cells. Adherence was visualized microscopically as described above.

[3] = system: enterotoxigenic E coli strains; test: MIC against rifaximin by agar dilution, ETEC isolates; assay type: cell-based
Excerpt: (§1) Five enterotoxigenic E coli strains, 2 enteroaggregative E coli strains, and 1 S sonnei isolate were included in the study. The isolates had been identified previously from patients with TD acquired in Guadalajara, Mexico, during the summer of 2004 (5).

[4] = system: enteroaggregative E coli strains; test: MIC against rifaximin by agar dilution, EAEC isolates; assay type: cell-based; settings: 2 EAEC isolates
Excerpt: as §1

S sonnei isolate [5] = test: MIC against rifaximin by agar dilution, S sonnei isolate; assay type: cell-based
Excerpt: as §1

ETEC strains = test: Isolate viability after rifaximin exposure, ETEC; assay type: cell-based, E coli
EAEC isolates [6] = test: Isolate viability after rifaximin exposure, EAEC; assay type: cell-based, E coli
S sonnei isolate [7] = test: Isolate viability after rifaximin exposure, S sonnei; assay type: cell-based
EAEC isolates [8] = test: MMP-9 detection by gelatin zymography in EAEC isolates after rifaximin exposure; assay type: cell-based, E coli
Procedure: (§2) Expression of matrix metalloproteinase-9 (MMP-9) was analyzed using gelatin zymography in all viable EAEC and S. sonnei isolates growing on MacConkey agar. Isolates were suspended in 1 mL of 0.1 M phosphate buffered saline (pH 7.2) and centrifuged at 1000 g for 10 minutes at 4° C. The supernatant was subjected to gelatin zymography to detect MMP-9 activity using a modified Heussen and Dowdle protocol (9). In summary, the supernatant was diluted 1:2 in a sample buffer (125 mM Tris-HCl, pH 6.8, 20% glycerol, 4% sodium dodecyl sulfate, 0.02% bromphenol blue), and 20 μL was loaded on to a 10% SDS-PAGE gel containing 1 mg/mL gelatin. Prestained standard proteins were used as molecular weight markers. After electrophoresis, gels were rinsed with incubation buffer (2.5% triton X-100, 50 mM Tris-HCl, pH 7.4, 0.02% Brij 35, 10 mM CaCl2, 2 μM ZnCl2) for 1 hour at room temperature to remove SDS. Gels were then incubated overnight at 37° C. and subsequently stained with Coomassie brilliant blue R-250 (Thermo Fisher Scientific, Inc, Rockford, Ill.). […] Matrix metalloproteinase-9 was identified among all gelatinolytic proteins by size.

S sonnei isolate [9] = test: MMP-9 detection by gelatin zymography in S sonnei isolate after rifaximin exposure; assay type: cell-based
Procedure: as §2

EAEC strains = test: HCT-8 cell culture assay for IL-8 release after infection with rifaximin-exposed EAEC; assay type: cell-based, E coli
Procedure: The human intestinal adenocarcinoma cell line, HCT-8, was used to study inflammatory modulators as previously published (Huang, 2004 #15). Monolayers of HCT-8 cells (ATCC CCL-244; American Type Culture Collection, Rockville, Md.) were grown in 24-well culture plates (Corning Costar, Corning, N.Y.) in an RPMI 1640 medium (Sigma-Aldrich Co, St Louis, Mo.) supplemented with 100 U/mL of penicillin, 100 μg/mL of streptomycin, and 0.25 μg/mL of amphotericin B. They were maintained in a medium supplemented with 10% fetal bovine serum (HyClone, Logan, Utah) and grown until approximately 4×10^5 cells/well confluence.
HCT-8 cells were infected with EAEC strains recovered from MacConkey agar in triplicate at a 100:1 ratio in an antibiotic- and serum-free RPMI 1640 medium. Cells were incubated for 3 hours in a humidified chamber at 37° C. in an atmosphere containing 5% CO2, after which supernatants were collected. The supernatant concentration of IL-8 in each well was determined by using a commercially available enzyme-linked immunosorbent assay kit for human IL-8 (R&D Systems, Minneapolis, Minn.). All samples were tested twice, and the average value was reported.

EAEC [10] = test: MIC50 previously established for EAEC; assay type: cell-based, E. coli; settings: previously established in our laboratory
C difficile isolates [11] = settings: cited from earlier work
[12] = oral administration, healthy volunteers (Descombe et al. 1994); cited from earlier work
HEp-2 cells = test: Cytokine array of supernatants of treated HEp-2 cells; settings: 64 μg/ml, 24 h; Panomics array of 36 cytokines
C difficile isolates [13] = test: In vitro susceptibility of C difficile isolates (agar dilution for rifaximin, Etest for rifampin)
[14] = rifaximin 32 and 64 mg/L for 24 hours
[15] = 110 C difficile isolates, 1983 to 2004
[16] = resistance = MIC≥32 μg/mL, for rifaximin b194 says 'rifaximin alone'

(2S,16Z,18E,20S,21S ,22R, 23R,24R,255,265,275,28E)-5,6,21,23,25 Pentahydroxy-27-methoxy-2,4,11,16,20,22,24,26-octamethyl-2,7-(epoxypentadeca-(1,11,13) trienimino) benzofuro (4,5-e) pyrido(1,2,-a) benzimidazole-1,15(2H)-dione,25-acetate [Rifaximin]
Internalization of B. anthracis ([1]; gentamicin protection): significant reductions | Adherence of B. anthracis [1]: significant reductions | S. sonnei attachment (S. sonnei): no effect | S. sonnei internalization (S. sonnei): no effect | Adherence of EAEC mixed with dialyzed supernatants from treated HEp-2 cells (EAEC [2]): adhered poorly; also recorded: affected EAEC adherence | MIC ([3]; 2 ETEC isolates): 128 µg/mL | MIC ([3]; 3 ETEC isolates): 64 µg/mL | MIC [4]: 64 µg/mL | MIC (S sonnei isolate [5]): 16 µg/mL | ETEC viability (ETEC strains; rifaximin 8 mg/L for 24 hours): viable | ETEC viability (ETEC strains; rifaximin 64 mg/L for 18 hours): No ETEC isolates were viable; also recorded: not viable | ETEC viability (ETEC strains; rifaximin 8, 32, and 64 mg/L for 4 and 8 hours): viable | ETEC viability (ETEC strains; rifaximin 8 and 32 mg/L for 18 hours): viable | ETEC viability (ETEC strains; [14]): No ETEC isolates were viable; also recorded: not viable | EAEC viability (EAEC isolates [6]; rifaximin 8 mg/L for 24 hours): viable | EAEC viability (EAEC isolates [6]; rifaximin 8, 32, and 64 mg/L at 4, 8, and 18 hours): viable | EAEC viability (EAEC isolates [6]; [14]): no viable isolates were recovered; also recorded: not viable | S sonnei viability (S sonnei isolate [7]; rifaximin 8 mg/L for 4, 8, 18, and 24 hours): viable | S sonnei viability (S sonnei isolate [7]; rifaximin 32 or 64 mg/L at any time point examined): not viable | MMP-9 expression by EAEC isolates (EAEC isolates [8]; 18-hour time point (rifaximin 8 mg/L)): one EAEC isolate produced MMP-9, but the other isolate did not | MMP-9 expression by EAEC isolates (EAEC isolates [8]; rifaximin 8 mg/L for 4 and 8 hours): expressed MMP-9 | MMP-9 expression by EAEC isolates (EAEC isolates [8]; rifaximin 8 mg/L for 24 hours): undetectable | MMP-9 expression by EAEC isolates (EAEC isolates [8]; rifaximin 32 or 64 mg/L for 4, 8, or 18 hours): undetectable | MMP-9 in the S sonnei isolate (S sonnei isolate [9]; other time points and rifaximin concentrations): either undetectable or the isolate was not viable | MMP-9 in the S sonnei isolate (S sonnei isolate [9]; rifaximin 8 mg/L for 4 hours): detectable | IL-8 production from HCT-8 cells elicited by rifaximin-exposed EAEC (EAEC strains; all other time points and rifaximin concentrations): either undetected following HCT-8 infection with EAEC strains, or EAEC strains were not viable | IL-8 production from HCT-8 cells elicited by rifaximin-exposed EAEC (EAEC strains; rifaximin 64 mg/L for 4 hours): caused IL-8 production | IL-8 production from HCT-8 cells elicited by rifaximin-exposed EAEC (EAEC strains; rifaximin 8 or 32 mg/L for 4 or 8 hours): elicited production of IL-8 | IL-8 production from HCT-8 cells elicited by rifaximin-exposed EAEC (EAEC strains; viable isolates, rifaximin 8, 32, or 64 mg/L for 18 hours or 8 mg/L for 24 hours): did not elicit IL-8 production | MIC50 for EAEC (EAEC [10]): 64 µg/mL | Isolates resistant to rifaximin, based on MIC values (C difficile isolates [11]; 110 C difficile isolates from multiple locations): 2.7% | MIC50 (C difficile isolates [11]; [15]): 0.0075 µg/mL | MIC90 (C difficile isolates [11]; [15]): 0.015 µg/mL | Systemic absorption [12]: negligible | Cytokines detected in supernatants of treated HEp-2 cells (HEp-2 cells): detectable levels of RANTES and IL-4 only; also recorded: reduced the expression of various proinflammatory cytokines | MIC50 (C difficile isolates [13]; 359 C difficile isolates): <0.01 µg/mL | MIC90 (C difficile isolates [13]; 359 C difficile isolates): 0.25 µg/mL | MIC50 (C difficile isolates [13]; 359 C difficile isolates, listed as rifaximin): < 0.01 µg/mL | Isolates resistant to both rifampin and rifaximin, percent of 359 (C difficile isolates [13]; MIC≥32 μg/mL): 2% | Resistant isolates, number of 359 (C difficile isolates [13]; [16]): 11 | Resistant isolates, percent of 359 (C difficile isolates [13]; [16]): 3%
